{
  "source": "patent US9222118B2",
  "about": "(priority 2008, dated 2015)",
  "key": {"VeroVP30 cells": {"test_system": "VeroVP30 cells", "conditions": "green monkey"}, "adenovirus Ad-5": {"test_system": "adenovirus Ad-5", "format": "cell-based"}, "Ebolavirus minigenome": {"test_system": "Ebolavirus minigenome", "format": "cell-based"}, "in vitro": {"experiment": "in vitro", "conditions": "green monkey"}, "EbolaΔVP30-GFP virus": {"test_system": "EbolaΔVP30-GFP virus", "experiment": "microbe, parasite or virus in culture", "format": "cell-based, Zaire ebolavirus", "conditions": "Zaire ebolavirus"}, "vaccinia virus": {"test_system": "vaccinia virus", "format": "cell-based"}, "EbolaΔVP30-GFP": {"test_system": "EbolaΔVP30-GFP", "format": "cell-based, Zaire ebolavirus"}, "[1]": {"test_system": "Vesicular stomatitis virus (VSV) strain Indiana", "format": "cell-based"}, "VSVΔG*-Ebolavirus GP": {"test_system": "VSVΔG*-Ebolavirus GP", "format": "cell-based", "conditions": "10 μM"}, "influenza virus": {"test_system": "influenza virus", "format": "cell-based"}, "[2]": {"test_system": "phosphoinositide-3 (PI3) kinase-Akt pathway", "format": "cell-based"}, "[3]": {"test_system": "VSV pseudotyped with Ebola GP glycoprotein", "format": "cell-based, Ebolavirus"}, "[4]": {"test_system": "VSV pseudotyped with GPs of all known subtypes of Ebolavirus (Zaire, Reston, Sudan, Ivory Coast)", "format": "cell-based"}, "VSV": {"test_system": "VSV", "format": "cell-based"}, "[5]": {"test_system": "VSV pseudotyped with the GP protein of Marburgvirus", "format": "cell-based"}},
  "note": "Entries after “also recorded” stand apart in the source; their conditions may differ. Where a name gives a salt, the structure may show the parent alone.",
  "data": [
    {"compound": "CC(=O)O[C@@H]1C[C@H]2C(C)(C)C(=O)C=C[C@]2(C)[C@H]2CC[C@@]3(C)[C@H](c4ccoc4)OC(=O)[C@H]4O[C@]43[C@@]21C", "note": "[Gedunin]", "values": [
      {"measurement": "% cell viability", "setting": "VeroVP30 cells", "result": 77, "unit": "%"},
      {"measurement": "inhibition of adenovirus growth", "setting": "adenovirus Ad-5", "result": "slightly inhibitory; also recorded: slightly delay the propagation"},
      {"measurement": "% luc activity from the Ebolavirus minigenome", "setting": "Ebolavirus minigenome", "result": "1.3%±0.2%"},
      {"measurement": "effect on protein expression from the Ebolavirus minigenome", "setting": "Ebolavirus minigenome", "result": "inhibit protein expression from the Ebolavirus minigenome"},
      {"measurement": "CC50", "setting": "in vitro", "result": "> 10", "unit": "µM"},
      {"measurement": "IC50", "setting": "EbolaΔVP30-GFP virus", "result": 330, "unit": "nM"},
      {"measurement": "inhibition at 5 µM", "setting": "EbolaΔVP30-GFP virus; read-out: % GFP inhibition", "result": 102, "unit": "%"},
      {"measurement": "inhibition of vaccinia virus growth", "setting": "vaccinia virus", "result": "slightly delay the propagation"},
      {"measurement": "inhibition of EbolaΔVP30-GFP growth", "setting": "EbolaΔVP30-GFP", "result": "completely inhibited"},
      {"measurement": "inhibition of VSV growth", "setting": "[1]", "result": "slightly delay the propagation"}
    ]},
    {"compound": "COC1=C2C[C@@H](C)C[C@H](OC)[C@H](O)[C@@H](C)/C=C(\\C)[C@H](OC(N)=O)[C@@H](OC)/C=C\\C=C(/C)C(=O)NC(=CC1=O)C2=O", "note": "[GM, geldanamycin]", "values": [
      {"measurement": "% luc activity from the Ebolavirus minigenome", "setting": "Ebolavirus minigenome", "result": "24.7%±7.7%"},
      {"measurement": "reduction of EbolaΔVP30 virus growth", "setting": "EbolaΔVP30-GFP", "result": 30, "unit": "%"},
      {"measurement": "Infectivities of VSVΔG*-Ebolavirus GP standardized by the infectivities of VSVΔG*-VSV G", "setting": "VSVΔG*-Ebolavirus GP", "result": 137, "unit": "%"}
    ]},
    {"compound": "17-Allylamino-17-demethoxygeldanamycin [17-AAG]", "values": [
      {"measurement": "% luc activity from the Ebolavirus minigenome", "setting": "Ebolavirus minigenome", "result": "7.9%±1.5%"},
      {"measurement": "reduction of EbolaΔVP30 virus growth", "setting": "EbolaΔVP30-GFP", "result": 92, "unit": "%"},
      {"measurement": "Infectivities of VSVΔG*-Ebolavirus GP standardized by the infectivities of VSVΔG*-VSV G", "setting": "VSVΔG*-Ebolavirus GP", "result": 110, "unit": "%"}
    ]},
    {"compound": "CN1C2CCC1CC(OC(c1ccccc1)c1ccccc1)C2", "note": "(stereo not shown) [benztropine mesylate]", "values": [
      {"measurement": "effect on growth of influenza virus", "setting": "influenza virus", "result": "does not affect the growth"},
      {"measurement": "inhibition of the PI3 kinase-Akt pathway", "setting": "[2]", "result": "did not inhibit"},
      {"measurement": "infection of VSV pseudotyped with Ebola GP bound to cell surfaces", "setting": "[3]", "result": "inhibit infection"},
      {"measurement": "reduction of titers of pseudotyped viruses", "setting": "[4]", "result": "98-99%"},
      {"measurement": "effect on growth of VSV", "setting": "VSV", "result": "does not affect the growth"},
      {"measurement": "reduction of virus titers", "setting": "[5]", "result": "about 75%"}
    ]}
  ]
}
